The record followed here is US20160158317A1, “Antimicrobial Peptide Variants and Polynucleotides Encoding Same” (Adenium Biotech A/S, priority 2010, published 2016).

Where a SMILES comes first, the peptide text is derived from it. Bridges are numbered along the chain shown (N, C = ends).

Data set [1] deals with E. coli ATCC 10536. Put plainly: Plate assay screening of variants expressed in S. cerevisiae, overlaid with target organism in presence of horse blood or serum. It counts as cell-based, Escherichia coli. The following applies: 2.5% blood, 5% blood or 5% serum. An excerpt: Several strategies were used for variant generation of the polynucleotide of SEQ ID NO:1. The resulting libraries were cloned and expressed in S. cerevisiae. Transformed clones were screened on a plate assay containing growth media supplemented with 1.5% galactose and 0.5% glucose and either horse blood (2.5-5%) or serum (5%), overlayed with the target organism, E. coli ATCC 10536 (See Raventos et al., 2005, Comb Chem High Throughput Screen. 8:219-33).
Approximately, 300 Saccharomyces cerevisiae colonies expressing arenicin variants were spread on screening plates containing either horse blood (2.5% or 5%) or 5% horse serum (see composition of the plates below). Plates were incubated 3 hours at 30° C. to allow them to dry. Next, 25 ml overlay temperate at 42° C. was added to the plates. After the media had solidified, the plates were incubated 3 days at 30° C.
On day 4, plates were overlayed with pre-warmed media at 42° C. containing either 2.5% or 5% horse blood or 5% horse serum and the target bacteria, E. coli ATCC 10536 (see below for details on media composition). After the overlay solidified, plates were incubated 16 hours at 37° C. Next day, plates were colored by adding 10 ml of 1.5 mM MTT to the plates and incubated at room temperature for 30 minutes. Clones giving rise to clearing zones were picked and sequenced. […]

Data set [2] can be described thus: Determination of the protein binding (90% serum, 30 kDa filter, HPLC). It counts as in vitro ADME. The following applies: purified peptide mixed with 90% serum, 30 kDa filter, HPLC; read-out: Protein binding (%) (converted). On the procedure:
Protein binding assays were performed as follows. The purified peptides were mixed with 90% serum and centrifuged through a 30 kDa filter. The ultra-filtrate and the non filtrated serum samples were quantified by HPLC measurements and the protein binding was subsequently calculated.

`CC(C)[C@@H]1NC(=O)CNC(=O)[C@H](CC(N)=O)NC(=O)[C@H](CCCNC(=N)N)NC(=O)[C@H](Cc2ccc(O)cc2)NC(=O)[C@H](C(C)C)NC(=O)[C@@H]2CSSC[C@H](NC(=O)[C@H](C(C)C)NC(=O)[C@H](CCCNC(=N)N)NC1=O)C(=O)N[C@@H](Cc1ccc(O)cc1)C(=O)N[C@@H](CCCNC(=N)N)C(=O)N[C@@H](CCCNC(=N)N)C(=O)N[C@H](C(=O)N[C@@H](CC(N)=O)C(=O)O)CSSC[C@H](NC(=O)[C@H](Cc1ccccc1)NC(=O)CN)C(=O)N[C@@H](Cc1c[nH]c3ccccc13)C(=O)N[C@@H](Cc1ccc(O)cc1)C(=O)N[C@@H](C(C)C)C(=O)N2` [SEQ ID NO: 2, reference compound] (H-GFCWYVCVYRNGVRVCYRRCN-OH; disulfide 3-20, 7-16): the “antimicrobial activity in plate assay (clearing zones)” value in data set [1] is “fully inhibited”. In addition, the fraction unbound in data set [2] was 0.005.
